The supplement of paper PMC10307832

What was measured:
Test in all cases: relative viability (nuclei count vs DMSO), 5 days (fraction); higher = more cells survive
ABC-1 = system: ABC-1
Summary of the method: (§1)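 Each reported value is a median over duplicate plates. It expresses relative viability: treated-well nuclei count divided by vehicle-well nuclei count. Lung cancer cell lines in 1536-well plates were dosed by pin tool a day after seeding, alone with one drug or with a fixed anchor-drug dose plus five library-drug doses (not always all listed) in √10 steps, and nuclei were counted after 5 days.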

BEN = system: BEN
Summary of the method: as §1

EKVX = system: EKVX
Summary of the method: as §1

EPLC-272H = system: EPLC-272H
Summary of the method: as §1

HCC-827 = system: HCC-827
Summary of the method: as §1

HOP-62 = system: HOP-62
Summary of the method: as §1

LU99A = system: LU99A
Summary of the method: as §1

LXF-289 = system: LXF-289
Summary of the method: as §1

NCI-H1563 = system: NCI-H1563
Summary of the method: as §1

NCI-H1666 = system: NCI-H1666
Summary of the method: as §1

NCI-H1975 = system: NCI-H1975
Summary of the method: as §1

NCI-H2170 = system: NCI-H2170
Summary of the method: as §1

NCI-H23 = system: NCI-H23
Summary of the method: as §1

NCI-H2405 = system: NCI-H2405
Summary of the method: as §1

NCI-H3122 = system: NCI-H3122
Summary of the method: as §1

NCI-H322M = system: NCI-H322M
Summary of the method: as §1

NCI-H358 = system: NCI-H358
Summary of the method: as §1

NCI-H520 = system: NCI-H520
Summary of the method: as §1

NCI-H727 = system: NCI-H727
Summary of the method: as §1

NCI-H838 = system: NCI-H838
Summary of the method: as §1

SK-MES-1 = system: SK-MES-1
Summary of the method: as §1

UMC-11 = system: UMC-11
Summary of the method: as §1

## COCC1(CO)C(=O)C2CCN1CC2 (centres undefined) [PRIMA-1MET] + C[C@@H](Oc1cc(-c2cnn(C3CCNCC3)c2)cnc1N)c1c(Cl)ccc(F)c1Cl [Crizotinib] (partner 1 µM)
ABC-1; first compound 0.2 µM
  relative viability: 1.39
ABC-1; first compound 0.6325 µM
  relative viability: 1.22
ABC-1; first compound 2 µM
  relative viability: 0.945
ABC-1; first compound 6.325 µM
  relative viability: 0.908
ABC-1; first compound 20 µM
  relative viability: 0.555
BEN; first compound 0.2 µM
  relative viability: 0.973
BEN; first compound 0.6325 µM
  relative viability: 0.88
BEN; first compound 6.325 µM
  relative viability: 0.974
BEN; first compound 20 µM
  relative viability: 0.735
EKVX; first compound 0.2 µM
  relative viability: 1.11
EKVX; first compound 0.6325 µM
  relative viability: 0.893
EKVX; first compound 2 µM
  relative viability: 0.665
EKVX; first compound 6.325 µM
  relative viability: 0.997
EKVX; first compound 20 µM
  relative viability: 0.891
EPLC-272H; first compound 0.2 µM
  relative viability: 0.989
EPLC-272H; first compound 0.6325 µM
  relative viability: 0.867
EPLC-272H; first compound 2 µM
  relative viability: 0.816
EPLC-272H; first compound 6.325 µM
  relative viability: 0.851
EPLC-272H; first compound 20 µM
  relative viability: 0.262
HCC-827; first compound 0.2 µM
  relative viability: 1.06
HCC-827; first compound 0.6325 µM
  relative viability: 0.813
HCC-827; first compound 2 µM
  relative viability: 0.796
HCC-827; first compound 6.325 µM
  relative viability: 0.978
HCC-827; first compound 20 µM
  relative viability: 0.896
HOP-62; first compound 0.2 µM
  relative viability: 0.999
HOP-62; first compound 0.6325 µM
  relative viability: 0.76
HOP-62; first compound 2 µM
  relative viability: 0.666
HOP-62; first compound 6.325 µM
  relative viability: 0.969
HOP-62; first compound 20 µM
  relative viability: 0.768
LU99A; first compound 0.2 µM
  relative viability: 0.564
LU99A; first compound 0.6325 µM
  relative viability: 0.475
LU99A; first compound 2 µM
  relative viability: 0.576
LU99A; first compound 6.325 µM
  relative viability: 0.501
LU99A; first compound 20 µM
  relative viability: 0.0737
LXF-289; first compound 0.2 µM
  relative viability: 0.81
LXF-289; first compound 0.6325 µM
  relative viability: 0.869
LXF-289; first compound 2 µM
  relative viability: 0.871
LXF-289; first compound 6.325 µM
  relative viability: 0.815
LXF-289; first compound 20 µM
  relative viability: 0.767
NCI-H1563; first compound 0.2 µM
  relative viability: 0.887
NCI-H1563; first compound 0.6325 µM
  relative viability: 0.806
NCI-H1563; first compound 2 µM
  relative viability: 0.868
NCI-H1563; first compound 6.325 µM
  relative viability: 0.843
NCI-H1563; first compound 20 µM
  relative viability: 0.262
NCI-H1666; first compound 0.2 µM
  relative viability: 1.15
NCI-H1666; first compound 0.6325 µM
  relative viability: 0.9
NCI-H1666; first compound 2 µM
  relative viability: 0.987
NCI-H1666; first compound 6.325 µM
  relative viability: 1.25
NCI-H1666; first compound 20 µM
  relative viability: 0.443
NCI-H1975; first compound 0.2 µM
  relative viability: 1.12
NCI-H1975; first compound 0.6325 µM
  relative viability: 0.962
NCI-H1975; first compound 2 µM
  relative viability: 0.938
NCI-H1975; first compound 6.325 µM
  relative viability: 0.939
NCI-H1975; first compound 20 µM
  relative viability: 0.828
NCI-H2170; first compound 0.2 µM
  relative viability: 1.38
NCI-H2170; first compound 0.6325 µM
  relative viability: 1.13
NCI-H2170; first compound 2 µM
  relative viability: 1.02
NCI-H2170; first compound 6.325 µM
  relative viability: 1.26
NCI-H2170; first compound 20 µM
  relative viability: 1.21
NCI-H23; first compound 0.2 µM
  relative viability: 0.599
NCI-H23; first compound 0.6325 µM
  relative viability: 0.471
NCI-H23; first compound 2 µM
  relative viability: 0.48
NCI-H23; first compound 6.325 µM
  relative viability: 0.406
NCI-H23; first compound 20 µM
  relative viability: 0.104
NCI-H2405; first compound 0.2 µM
  relative viability: 0.679
NCI-H2405; first compound 0.6325 µM
  relative viability: 0.847
NCI-H2405; first compound 6.325 µM
  relative viability: 0.818
NCI-H2405; first compound 20 µM
  relative viability: 0.452
NCI-H3122; first compound 0.2 µM
  relative viability: 0.317
NCI-H3122; first compound 0.6325 µM
  relative viability: 0.25
NCI-H3122; first compound 2 µM
  relative viability: 0.259
NCI-H3122; first compound 6.325 µM
  relative viability: 0.286
NCI-H3122; first compound 20 µM
  relative viability: 0.284
NCI-H322M; first compound 0.2 µM
  relative viability: 0.75
NCI-H322M; first compound 6.325 µM
  relative viability: 0.991
NCI-H322M; first compound 20 µM
  relative viability: 0.82
NCI-H358; first compound 0.2 µM
  relative viability: 0.688
NCI-H358; first compound 0.6325 µM
  relative viability: 0.59
NCI-H358; first compound 6.325 µM
  relative viability: 0.526
NCI-H358; first compound 20 µM
  relative viability: 0.152
NCI-H520; first compound 0.2 µM
  relative viability: 0.639
NCI-H520; first compound 0.6325 µM
  relative viability: 0.841
NCI-H520; first compound 6.325 µM
  relative viability: 0.659
NCI-H520; first compound 20 µM
  relative viability: 0.135
NCI-H727; first compound 0.2 µM
  relative viability: 0.841
NCI-H727; first compound 0.6325 µM
  relative viability: 0.873
NCI-H727; first compound 2 µM
  relative viability: 0.82
NCI-H727; first compound 6.325 µM
  relative viability: 0.715
NCI-H727; first compound 20 µM
  relative viability: 0.117
NCI-H838; first compound 0.2 µM
  relative viability: 1.06
NCI-H838; first compound 0.6325 µM
  relative viability: 0.755
NCI-H838; first compound 2 µM
  relative viability: 0.793
NCI-H838; first compound 6.325 µM
  relative viability: 0.906
NCI-H838; first compound 20 µM
  relative viability: 0.318
SK-MES-1; first compound 0.2 µM
  relative viability: 1.09
SK-MES-1; first compound 0.6325 µM
  relative viability: 0.968
SK-MES-1; first compound 2 µM
  relative viability: 1.03
SK-MES-1; first compound 6.325 µM
  relative viability: 0.943
SK-MES-1; first compound 20 µM
  relative viability: 0.997
UMC-11; first compound 0.2 µM
  relative viability: 0.536
UMC-11; first compound 0.6325 µM
  relative viability: 0.643
UMC-11; first compound 2 µM
  relative viability: 0.607
UMC-11; first compound 6.325 µM
  relative viability: 0.726
UMC-11; first compound 20 µM
  relative viability: 0.586
